Like-named read-outs stand apart in the source and are kept apart here.
How the values were obtained:
REV-ERBα = REV-ERBα (Homo sapiens (Human), UniProt P20393); assay: FRET assay for REV-ERB ligands (REV-ERBα LBD / NCoR ID2 peptide interaction); format: biochemical; conditions: TR-FRET, His-tagged REV-ERBα LBD, fluorescein NCoR ID2 peptide; read-out: RevErbα Inhibition IC50
Protocol: (§1) Example A: FRET Assay for REV-ERB Ligands
(§2) The capacity for compounds to function as ligands for either REV-ERBα or REV-ERBβ was assessed using a fluorescent resonance energy transfer assay that detects the interaction between these receptors and the Nuclear Receptor Corepressor (NCoR) protein (the ID2 corepressor interaction domain peptides is used). This interaction is known to be ligand dependent and thus this assay that can detect an alteration of the affinity of these two proteins is able to detect ligands. The His-tagged ligand binding domain (LBD) of either REV-ERBα or REV-ERBβ and fluorescein labeled NCoR ID2 peptide (Life Technologies #PV4624) is used in these assays. The His-tagged LBDs were expressed in E. coli (amino acids 281-614 REV-ERBα and 381-579 REV-ERBβ) and labeled with a Terbium (Tb) labeled anti-His antibody (Life Technologies #PV5895). The assay buffer was PBS (phosphate buffered saline) with 5 mM DTT (dithiothreitol). The final concentration of various reagents in the assay are: REV-ERB LBD (either isoform) [5 nM], Fluorescein labeled NCoR ID2 peptide [250 nM], Tb labeled anti-his antibody [10 nM], dimethylsulfoxide [1%] and test compound [varying concentrations]. The assay was performed in Corning NBS black 384-well plates in a total volume of 20 μl. The assay plate was incubated for 1 hour at room temperature protected from light and then TR-FRET was assessed on a Biotek plate reader with the following excitation/emission pairs (340 nm/495 nm and 340 nm/520 nm. The 520 nm/495 nm emission signal ratio was used as an indicator of the degree of interaction between the LBD and NCoR peptide and EC50's were calculated using GraphPad Prizm software.

REV-ERBβ = REV-ERBβ (Homo sapiens (Human), UniProt Q14995); assay: FRET assay for REV-ERB ligands (REV-ERBβ LBD / NCoR ID2 peptide interaction); format: biochemical; conditions: TR-FRET, His-tagged REV-ERBβ LBD, fluorescein NCoR ID2 peptide; read-out: RevErbβ Inhibition IC50
REV-ERBβ, sequence (Q14995 381-579): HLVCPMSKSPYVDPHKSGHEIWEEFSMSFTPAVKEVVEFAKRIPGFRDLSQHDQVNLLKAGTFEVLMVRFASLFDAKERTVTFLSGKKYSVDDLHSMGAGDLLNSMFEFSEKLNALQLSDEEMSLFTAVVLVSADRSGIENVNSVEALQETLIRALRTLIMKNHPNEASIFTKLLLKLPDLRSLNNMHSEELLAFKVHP
Protocol: as §1, §2

[1] = Plasma pharmacokinetics after intraperitoneal injection in mice; format: in vivo; conditions: mouse, 5 mg/kg IP; for Vd/F: read-out: Vz/F
Protocol: Example B: Pharmacokinetics of Selected Compounds
Mice were injected intraperitoneally with (5 mg/kg) of the compound of Example 71 or Example 78 and plasma samples were taken at intervals of […], 0.25 hr, 0.5 hr. 1.0 hr, 3.0 hr, and 6.0 hr post-administration in order to analyze the pharmacokinetic profile of these compounds. The mean plasma content for male and for female mice at these time points post-injection are shown for Example 71 in FIG. 1A and Table 3, and for Example 78, in FIG. 1B and Table 4.

[2] = tested on: senescence accelerated mouse P8 (SAMP8) mouse model; conditions: SAMP8 mice, AD-like pathology; cited from earlier work

REV-ERBα, sequence (P20393 281-614): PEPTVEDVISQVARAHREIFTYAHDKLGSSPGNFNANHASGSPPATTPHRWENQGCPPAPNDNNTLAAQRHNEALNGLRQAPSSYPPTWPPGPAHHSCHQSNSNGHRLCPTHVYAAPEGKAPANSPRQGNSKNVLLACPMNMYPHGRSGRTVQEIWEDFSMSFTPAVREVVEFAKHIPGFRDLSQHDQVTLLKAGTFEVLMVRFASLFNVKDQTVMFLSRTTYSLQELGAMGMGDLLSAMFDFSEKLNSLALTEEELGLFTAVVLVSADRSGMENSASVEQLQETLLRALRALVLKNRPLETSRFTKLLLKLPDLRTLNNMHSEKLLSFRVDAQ

| Structure (SMILES) | IC50 (REV-ERBα) [µM] | IC50 (REV-ERBβ) [µM] | other results |
| --- | --- | --- | --- |
| Cn1cnc2ccc(Oc3ccccc3-c3ccccc3)nc21 [Example 3, 5-([1,1′-biphenyl]-2-yloxy)-3-methyl-3H-imidazo[4,5-b]pyridine] | 0.25 to 1 | ≤ 0.25 |  |
| Cc1cccc(-c2ccccc2Oc2ccc3ncn(C)c3n2)c1 [Example 4, 3-methyl-5-(3′-methylbiphenyl-2-yloxy)-3H-imidazo[4,5-b]pyridine] |  | ≤ 0.25 |  |
| Cn1cnc2ccc(Oc3ccccc3-c3cccc(F)c3)nc21 [Example 5, 5-(3′-fluorobiphenyl-2-yloxy)-3-methyl-3H-imidazo[4,5-b]pyridine] | ≤ 0.25 | 0.25 to 1 |  |
| Cn1cnc2ccc(Oc3ccccc3-c3cccnc3)nc21 [Example 6, 3-methyl-5-(2-(pyridin-3-yl)phenoxy)-3H-imidazo[4,5-b]pyridine] | ≤ 0.25 |  |  |
| Cn1ncc2cnc(Oc3ccccc3-c3cccnc3)nc21 [Example 10, 1-methyl-6-(2-(pyridin-3-yl)phenoxy)-1H-pyrazolo[3,4-d]pyrimidine] | ≤ 0.25 | ≤ 0.25 |  |
| Cc1cccc(-c2ccccc2Oc2ccc3cnn(C)c3n2)c1 [Example 13, 1-methyl-6-(3′-methylbiphenyl-2-yloxy)-1H-pyrazolo[3,4-b]pyridine] | > 1 |  |  |
| Cn1ncc2ccc(Oc3ccccc3-c3cccc(F)c3)nc21 [Example 14, 6-(3′-fluorobiphenyl-2-yloxy)-1-methyl-1H-pyrazolo[3,4-b]pyridine] | 0.25 to 1 |  |  |
| CNc1cccc(-c2ccccc2Oc2ncc3ccn(C)c3n2)c1 [Example 17, N-methyl-2′-(7-methyl-7H-pyrrolo[2,3-d]pyrimidin-2-yloxy)biphenyl-3-amine] | ≤ 0.25 |  |  |
| Cc1nn(C)c2cnc(Oc3ccccc3-c3ccccc3)nc12 [Example 21, 5-([1,1′-biphenyl]-2-yloxy)-1,3-dimethyl-1H-pyrazolo[4,3-d]pyrimidine] | > 1 |  |  |
| c1ccc(-c2ccccc2Oc2ncc3cnccc3n2)cc1 [Example 22, 2-(biphenyl-2-yloxy)pyrido[4,3-d]pyrimidine] | ≤ 0.25 |  |  |
| c1ccc(-c2ccccc2Oc2ccc3cnccc3n2)cc1 [Example 24, 2-(biphenyl-2-yloxy)-1,6-naphthyridine] | ≤ 0.25 |  |  |
| FC(F)(F)c1cc(Oc2ccccc2-c2ccccc2)nc2ccccc12 [Example 34, 2-([1,1′-biphenyl]-2-yloxy)-4-(trifluoromethyl)quinoline] |  | > 1 |  |
| COc1ccc2c(C(F)(F)F)cc(Oc3ccccc3-c3ccccn3)nc2c1 [Example 36, 7-methoxy-2-(2-(pyridin-2-yl)phenoxy)-4-(trifluoromethyl)quinoline] | ≤ 0.25 |  |  |
| FC(F)(F)c1ccccc1Oc1ccc2ccncc2n1 [Example 44, 2-(2-(trifluoromethyl)phenoxy)-1,7-naphthyridine] |  | ≤ 0.25 |  |
| c1ccc(-c2ccccc2Oc2ccc3cnccc3n2)nc1 [Example 45, 2-(2-(pyridin-2-yl)phenoxy)-1,6-naphthyridine] | > 1 | ≤ 0.25 |  |
| FC(F)(F)c1ccccc1Oc1ccc2cnccc2n1 [Example 46, 2-(2-(trifluoromethyl)phenoxy)-1,6-naphthyridine] | 0.25 to 1 | > 1 |  |
| c1ccc(C2CCCCC2)c(Oc2ccc3ccncc3n2)c1 [Example 48, 2-(2-cyclohexylphenoxy)-1,7-naphthyridine] | ≤ 0.25 |  |  |
| c1ccc(C2CCCCC2)c(Oc2ccc3cnccc3n2)c1 [Example 49, 2-(2-cyclohexylphenoxy)-1,6-naphthyridine] | 0.25 to 1 |  |  |
| c1ccc(-c2cccc(Oc3ccc4ccncc4n3)c2)cc1 [Example 51, 2-([1,1′-biphenyl]-3-yloxy)-1,7-naphthyridine] |  | > 1 |  |
| c1ccc2c(Oc3ccc4ccncc4n3)cccc2c1 [Example 54, 2-(naphthalen-1-yloxy)-1,7-naphthyridine] | ≤ 0.25 |  |  |
| c1ccc2c(Oc3ccc4cnccc4n3)cccc2c1 [Example 56, 2-(naphthalen-1-yloxy)-1,6-naphthyridine] | > 1 | > 1 |  |
| c1cc2ccc(OC3CCCCC3)nc2cn1 [Example 57, 2-(cyclohexyloxy)-1,7-naphthyridine] | > 1 |  |  |
| c1ccc(-c2ccccc2Oc2ccc3ccncc3n2)cc1 [Example 59, 2-([1,1′-biphenyl]-2-yloxy)-1,7-naphthyridine] | ≤ 0.25 | ≤ 0.25 |  |
| COc1ccc2c(C(F)(F)F)cc(SCC(=O)NCCc3ccc(F)cc3)nc2c1 [Example 62, N-(4-fluorophenethyl)-2-((7-methoxy-4-(trifluoromethyl)quinolin-2-yl)thio)acetamide] | ≤ 0.25 |  |  |
| c1ccc(-c2ccccc2Oc2ccc3ncccc3n2)cc1 [Example 68, 2-([1,1′-biphenyl]-2-yloxy)-1,5-naphthyridine] | 0.25 to 1 | > 1 |  |
| c1ccc2cc(Oc3ccc4ccncc4n3)ccc2c1 [Example 70, 2-(naphthalen-2-yloxy)-1,7-naphthyridine] | ≤ 0.25 |  |  |
| Cc1cc(C)c(Oc2ccc3cnccc3n2)c(-c2ccccc2)c1 [Example 71, 2-((3,5-dimethyl-[1,1′-biphenyl]-2-yl)oxy)-1,6-naphthyridine] |  |  | AUC(0-inf) ([1]; female mice): 0.172 µg·h/mL; AUC(0-t) ([1]; female mice): 0.169 µg·h/mL; CL/F ([1]; female mice): 29 L/h/kg; Cmax ([1]; female mice): 0.345 µg/mL; Tmax ([1]; female mice): 4.98 min; half-life ([1]; female mice): 31.2 min; Vd/F ([1]; female mice): 21.9 L/kg; AUC(0-inf) ([1]; male mice): 0.225 µg·h/mL; AUC(0-t) ([1]; male mice): 0.222 µg·h/mL; CL/F ([1]; male mice): 22.3 L/h/kg; Cmax ([1]; male mice): 0.317 µg/mL; Tmax ([1]; male mice): 4.98 min; half-life ([1]; male mice): 28.2 min; Vd/F ([1]; male mice): 15.2 L/kg |
| COc1ccc(-c2ccc(C(F)(F)F)cc2Oc2ccc3cnccc3n2)cc1 [Example 78, 2-((4′-methoxy-4-(trifluoromethyl)-[1,1′-biphenyl]-2-yl)oxy)-1,6-naphthyridine] |  |  | AUC(0-t) ([1]; Table 4, female mice): 0.137 µg·h/mL; Cmax ([1]; Table 4, female mice): 0.269 µg/mL; Tmax ([1]; Table 4, female mice): 15 min; AUC(0-t) ([1]; Table 4, male mice): 0.343 µg·h/mL; CL/F ([1]; Table 4, male mice): 14.3 L/h/kg; Cmax ([1]; Table 4, male mice): 0.33 µg/mL; Tmax ([1]; Table 4, male mice): 15 min; half-life ([1]; Table 4, male mice): 33 min; Vd/F ([1]; Table 4, male mice): 11.3 L/kg |
| CCOC(=O)N1CCC(CN(Cc2ccc(Cl)cc2)Cc2ccc([N+](=O)[O-])s2)C1 (stereo not shown) [SR9009] |  |  | reversing the cognitive decline [2]: effective in reversing the cognitive decline |
